One assay has as its target T1, PknB (Mycobacterium tuberculosis, UniProt P9WI81).
T1 construct: made in house
The experiment in a line: biochemical. The following applies: 3 nM PknB, 6 uM GarA, 3 μM ATP, 30 min, competitive tight-binding fit, several symbols in a cell = repeat determinations; for Ki: read-out: Ki Values. Details: species or system M. tuberculosis.

For assay [1], the system named is Mycobacterium tuberculosis H37Ra. The experiment in a line: Mycobacterium tuberculosis growth inhibition assay (microtiter dilution, resazurin reduction). The class given is cell-based. The following applies: 7H9 broth, 9 days + 24 h resazurin, lowest concentration inhibiting resazurin reduction by >70%, several symbols in a cell = repeat determinations. A digest of the protocol:
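Resazurin-based microtiter dilution MIC: compounds in 7- or 11-step two-fold series with ~1×10^6 cells/mL H37Ra in 7H9/10% ADC, 9 days at 37 °C, then 24 h with dye. MIC is the lowest concentration giving >70% inhibition of resazurin reduction relative to DMSO controls, by 492/595 nm fluorescence.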

The structures appear in SMILES notation.

The values below come from patent US20110053916A1 (Vertex Pharmaceuticals Incorporated, priority 2009, published 2011).

T1 sequence (P9WI81 whole entry): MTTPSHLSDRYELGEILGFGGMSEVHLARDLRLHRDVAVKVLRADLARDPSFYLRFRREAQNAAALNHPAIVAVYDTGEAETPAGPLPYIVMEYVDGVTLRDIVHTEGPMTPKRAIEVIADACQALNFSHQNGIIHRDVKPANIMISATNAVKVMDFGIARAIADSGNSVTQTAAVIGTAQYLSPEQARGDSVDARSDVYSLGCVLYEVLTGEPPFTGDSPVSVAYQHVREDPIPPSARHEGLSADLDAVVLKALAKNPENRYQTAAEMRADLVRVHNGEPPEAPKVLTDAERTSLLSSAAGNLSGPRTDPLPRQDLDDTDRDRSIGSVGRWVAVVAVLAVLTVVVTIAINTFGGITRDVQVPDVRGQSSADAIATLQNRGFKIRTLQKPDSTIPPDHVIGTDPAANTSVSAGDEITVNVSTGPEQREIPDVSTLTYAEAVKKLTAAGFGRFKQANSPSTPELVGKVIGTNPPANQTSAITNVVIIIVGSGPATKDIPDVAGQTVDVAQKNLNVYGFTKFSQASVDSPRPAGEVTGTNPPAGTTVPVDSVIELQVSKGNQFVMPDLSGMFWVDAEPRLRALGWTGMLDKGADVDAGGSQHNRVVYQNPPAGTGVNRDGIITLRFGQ

Regarding `C#Cc1cnc(-c2ccc(S(=O)(=O)NC(C)=O)s2)nc1Nc1cc(C2CC2)[nH]n1` [Compound 192, N-(5-(4-(5-cyclopropyl-1H-pyrazol-3-ylamino)-5-ethynylpyrimidin-2-yl)thiophen-2-ylsulfonyl)acetamide], the Ki on PknB is 100 to 500 nM. For the same molecule, the MIC values entry in assay [1] is “B, C”.

On to `O=S(=O)(c1ccc(-c2ncc(Cl)c(Nc3cc(C4CC4)[nH]n3)n2)s1)n1cccc1` [Compound 307, 5-chloro-N-(5-cyclopropyl-1H-pyrazol-3-yl)-2-(5-pyrrol-1-ylsulfonyl-2-thienyl)-pyrimidin-4-amine], for which, at PknB, the Ki lay within 10 to 50 nM. Further, the MIC values entry in assay [1] is “B+”.

Take `OC/C=C/c1cnc(-c2ccccc2)nc1Nc1cc(C2CC2)[nH]n1` [Compound 53, (E)-3-(4-(5-cyclopropyl-1H-pyrazol-3-ylamino)-2-phenylpyrimidin-5-yl)prop-2-en-1-ol]: the “Ki Values” on PknB was “A, B**, B**”. In addition, the MIC values result in assay [1] is “B+”.

In the case of `CC(=O)OCCc1cnc(-c2ccc(S(N)(=O)=O)s2)nc1Nc1cc(C2CC2)[nH]n1` [Compound 313, 2-(4-(5-cyclopropyl-1H-pyrazol-3-ylamino)-2-(5-sulfamoylthiophen-2-yl)pyrimidin-5-yl)ethyl acetate], the Ki on PknB was 10 to 50 nM. Besides, the MIC values entry in assay [1] was “A+”.

With `CCOC(=O)C(O)c1ccc(-c2ncc(Cl)c(Nc3cc(C4CC4)[nH]n3)n2)s1` (stereo not drawn) [Compound 191, Ethyl 2-(5-(5-chloro-4-(5-cyclopropyl-1H-pyrazol-3-ylamino)pyrimidin-2-yl)thiophen-2-yl)-2-hydroxyacetate], the “Ki Values” at PknB is reported as “A*, B**”. The MIC values entry in assay [1] is recorded as “B, C”.

`COc1cc(Nc2cc(C3CC3)n[nH]2)nc(-c2ccc(S(N)(=O)=O)s2)n1` [Compound 293, 5-[4-[(5-cyclopropyl-2H-pyrazol-3-yl)amino]-6-methoxy-pyrimidin-2-yl]thiophene-2-sulfonamide]: at PknB, the Ki fell in the range of 100 to 500 nM. Also, the MIC values entry in assay [1] was “B++”.

Turning to `C#Cc1cnc(-c2ccccc2)nc1Nc1cc(C2CC2)[nH]n1` [Compound 14, N-(5-cyclopropyl-1H-pyrazol-3-yl)-5-ethynyl-2-phenylpyrimidin-4-amine], the “Ki Values” at PknB is “A*, A”. Further, the MIC values result in assay [1] is “B+, B”.

Consider `CC(C)(C)NS(=O)(=O)c1ccc(-c2ncc(Br)c(Nc3cc(C4CC4)[nH]n3)n2)s1` [Compound 170, 5-[5-bromo-4-[(5-cyclopropyl-1H-pyrazol-3-yl)amino]-pyrimidin-2-yl]-N-tert-butyl-thiophene-2-sulfonamide], for which, on PknB, the “Ki Values” is “A*, A”. Further, the MIC values entry in assay [1] is listed as “B+”.

Turning to `C=CCCC(=O)c1ncc(Cl)c(Nc2cc(C3CC3)[nH]n2)n1` [Compound 256, 1-[5-chloro-4-[(5-cyclopropyl-1H-pyrazol-3-yl)amino]-pyrimidin-2-yl]pent-4-en-1-one], the Ki at PknB lay in the range of 500 to 1000 nM. The MIC values entry in assay [1] was “B+”.

For the molecule `C#Cc1cnc(-c2ccc(S(=O)(=O)NC)s2)nc1Nc1cc(C2CC2)n[nH]1` [Compound 113, 5-(4-(3-cyclopropyl-1H-pyrazol-5-ylamino)-5-ethynylpyrimidin-2-yl)-N-methylthiophene-2-sulfonamide], the Ki at PknB is 1 to 10 nM. Further, in assay [1], the MIC values entry is on record as “B+”.

Consider `Nc1cc(Nc2cc(C3CC3)n[nH]2)nc(-c2ccc(S(N)(=O)=O)s2)n1` [Compound 294, 5-[4-amino-6-[(5-cyclopropyl-2H-pyrazol-3-yl)amino]-pyrimidin-2-yl]thiophene-2-sulfonamide], for which the Ki at PknB lay within 2000 to 4000 nM. For the same molecule, the MIC values result in assay [1] is “B+”.

`Nc1ccc(Nc2nccc(Nc3cc(C4CC4)n[nH]3)n2)cc1` [Compound 80, N-(4-aminophenyl)-N′-(5-cyclopropyl-2H-pyrazol-3-yl)-pyrimidine-2,4-diamine]: on PknB, the “Ki Values” is “A, B**”. In assay [1], the MIC values result is on record as “B, C”.
